Experimental data: ChEMBL document CHEMBL1201862, “PubChem BioAssay data set” (2004)
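Tested at 5 concentrations; 48 h exposure; 96-well plates; endpoints linearly interpolated, else capped at highest concentration. GI50 marks 50% less growth.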 Active and inactive are the calls of the source. No stated cut-off is given here; in the data, active = GI50 up to about 1.1 µM and inactive = higher.

Experiments:
Experiment in all cases: DTP human tumour cell line panel, 48 h
RPMI-8226 = test system: RPMI-8226
KM12 = test system: KM12
SNB-75 = test system: SNB-75
SN12C = test system: SN12C
NCI-H23 = test system: NCI-H23
HCT-15 = test system: HCT-15
Malme-3M = test system: Malme-3M
LOX IMVI = test system: LOX IMVI
MDA-N = test system: MDA-N
UACC-62 = test system: UACC-62
BT-549 = test system: BT-549
MOLT-4 = test system: MOLT-4
SF-295 = test system: SF-295
NCI-H460 = test system: NCI-H460
DU-145 = test system: DU-145
CAKI-1 = test system: CAKI-1
SF-539 = test system: SF-539
SK-MEL-28 = test system: SK-MEL-28
M14 = test system: M14
EKVX = test system: EKVX
RXF 393 = test system: RXF 393
OVCAR-3 = test system: OVCAR-3
SNB-19 = test system: SNB-19
HL-60 = test system: HL-60
A549 = test system: A549
HCC 2998 = test system: HCC 2998
HOP-62 = test system: HOP-62
CCRF-CEM = test system: CCRF-CEM
Hs-578T = test system: Hs-578T
COLO 205 = test system: COLO 205
UACC-257 = test system: UACC-257
OVCAR-8 = test system: OVCAR-8
SW-620 = test system: SW-620
MDA-MB-435 = test system: MDA-MB-435
HCT-116 = test system: HCT-116
NCI/ADR-RES = test system: NCI/ADR-RES
SR = test system: SR
SK-OV-3 = test system: SK-OV-3
HOP-92 = test system: HOP-92
MCF7 = test system: MCF7
HT-29 = test system: HT-29
SK-MEL-5 = test system: SK-MEL-5
OVCAR-4 = test system: OVCAR-4
786-0 = test system: 786-0
A498 = test system: A498
NCI-H522 = test system: NCI-H522
IGROV-1 = test system: IGROV-1
K562 = test system: K562
TK-10 = test system: TK-10
UO-31 = test system: UO-31
ACHN = test system: ACHN
OVCAR-5 = test system: OVCAR-5
SF-268 = test system: SF-268
MDA-MB-231 = test system: MDA-MB-231
U-251 = test system: U-251
SK-MEL-2 = test system: SK-MEL-2
PC-3 = test system: PC-3
T47D = test system: T47D
NCI-H226 = test system: NCI-H226

Measured: GI50

CCOC(=O)/C(=C\NC(C)(C)CO)c1nc2ccccc2[nH]1
81.7 µM: HCT-15
inactive: RPMI-8226 30.8 µM | KM12 75 µM | SNB-75 > 100 µM | SN12C > 100 µM | NCI-H23 67.8 µM | Malme-3M > 100 µM | LOX IMVI > 100 µM | MDA-N > 100 µM | UACC-62 43.5 µM | BT-549 > 100 µM | MOLT-4 43.3 µM | SF-295 64.6 µM | NCI-H460 36.1 µM | DU-145 > 100 µM | CAKI-1 > 100 µM | SF-539 > 100 µM | SK-MEL-28 77.8 µM | M14 > 100 µM | EKVX > 100 µM | RXF 393 > 100 µM | OVCAR-3 > 100 µM | SNB-19 > 100 µM | HL-60 44.5 µM | A549 86.5 µM | HCC 2998 46.2 µM | HOP-62 > 100 µM | CCRF-CEM 35.6 µM | Hs-578T 34.4 µM | COLO 205 58.9 µM | UACC-257 > 100 µM | OVCAR-8 74.8 µM | SW-620 > 100 µM | MDA-MB-435 > 100 µM | HCT-116 > 100 µM | NCI/ADR-RES 79.6 µM | SR 47.3 µM | SK-OV-3 > 100 µM | HOP-92 77.4 µM | MCF7 86.3 µM | HT-29 88.7 µM | SK-MEL-5 26.7 µM | OVCAR-4 94 µM | 786-0 > 100 µM | A498 54.6 µM | NCI-H522 61.7 µM | IGROV-1 41.5 µM | K562 75 µM | TK-10 63.8 µM | ACHN 27.2 µM | OVCAR-5 > 100 µM | SF-268 81.5 µM
active: UO-31 0.426 µM

COc1cc2c(cc1OCCCCOc1cc3nc(C)nc(Cl)c3cc1OC)N=C[C@@H]1CCCN1C2=O
inactive: KM12 1.89 µM | SNB-75 1.46 µM | SN12C 1.93 µM | NCI-H23 1.82 µM | Malme-3M 1.79 µM | LOX IMVI 1.27 µM | UACC-62 1.48 µM | BT-549 2.17 µM | MOLT-4 1.7 µM | SF-295 2.43 µM | NCI-H460 3.4 µM | DU-145 3.22 µM | CAKI-1 2.38 µM | SF-539 2.04 µM | SK-MEL-28 2.34 µM | M14 1.88 µM | EKVX 4.73 µM | RXF 393 2.12 µM | OVCAR-3 2.06 µM | MDA-MB-231 1.25 µM | SNB-19 17.4 µM | HL-60 2.48 µM | A549 2.79 µM | HOP-62 2.67 µM | Hs-578T 1.99 µM | U-251 1.26 µM | COLO 205 19.1 µM | SK-MEL-2 1.95 µM | UACC-257 2.29 µM | OVCAR-8 3.01 µM | PC-3 3.11 µM | SW-620 2.54 µM | MDA-MB-435 1.62 µM | HCT-116 2.21 µM | NCI/ADR-RES 2.27 µM | T47D 15.3 µM | SK-OV-3 30.4 µM | HOP-92 2.02 µM | MCF7 3.03 µM | HT-29 2.42 µM | SK-MEL-5 1.77 µM | OVCAR-4 2.84 µM | 786-0 3.12 µM | IGROV-1 1.64 µM | K562 2.07 µM | TK-10 2.34 µM | UO-31 1.88 µM | ACHN 1.94 µM | OVCAR-5 2 µM | NCI-H226 1.85 µM | SF-268 2.74 µM
active: SR 0.57 µM | NCI-H522 0.637 µM
1.43 µM: HCT-15
